This is an account of results in US10738057B2, “Tertiary alcohols as PI3K-γ inhibitors” (Incyte Corporation, priority 2017, dated 2020).

SMILES strings stand for the structures. Counter-ions that a name gives are not always drawn.

The target in assay [1] is PI3Kγ (p110γ) Recombinant Human Protein (Homo sapiens (Human), UniProt P48736). In words: PI3K-γ scintillation proximity assay. In kind it is biochemical. The note with it: 20 μM PIP2, 2 μM ATP, 13 nM PI3Kγ, 120 min, room temperature. The gist of the method:
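Radiometric SPA in 20 mM MOPS pH 6.7, 10 mM MgCl2, 5 mM DTT, 0.03% CHAPS, 2% DMSO. Stopped with EDTA and WGA SPA beads for scintillation counting. IC50 fitted from % solvent-control activity versus log concentration.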
(In a scintillation proximity assay essentially only radioactivity close to the scintillant gives light.)

For assay [2], the target named is PI3Kδ (p110δ/p85α) Recombinant Human Protein (Homo sapiens (Human), UniProt O00329). As to the kind of experiment: PI3Kδ scintillation proximity assay. In kind it is biochemical. The note with it: 20 μM PIP2, 2 μM ATP, 3.4 nM PI3Kδ, 120 min, room temperature; read-out: PI3Kδ IC50. The gist of the method: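 Recombinant human p110δ/p85α was run at room temperature in 20 mM MOPS pH 6.7, 10 mM MgCl2, 5 mM DTT, 0.03% CHAPS, 2% DMSO. Substrates were 20 µM PIP2 and 2 µM ATP with [γ-33P]ATP. Product was captured overnight on WGA SPA beads and counted by scintillation; IC50 fitted from percent of solvent control versus log concentration.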

Assay [3] relates to Phosphorylated Ribosomal Protein S6 (RPS6) in THP-1 cells. As to the kind of experiment: THP-1 RPS6 ELISA assay. The note with it: Homo sapiens, THP-1, THP-1 cells, serum starved, 2 h compound, 10 nM MCP-1 for 15 min, phospho-RPS6 ELISA; read-out: PI3Kγ_THP1_RPS6_ELISA IC50. The class given is cell-based, Human. The gist of the method: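 Serum-starved THP-1 cells (2×10^5/well, RPMI) preincubated with compound 2 h at 37° C, then stimulated with 10 nM MCP-1 for 15 min. Lysates assayed by phospho-RPS6 ELISA, absorbance 450 nm (540 nm correction); IC50 from percent inhibition versus log concentration.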
Background: In an ELISA, binding on a coated surface is turned into a signal by an enzyme label.

PI3Kγ (p110γ) Recombinant Human Protein, sequence (P48736 whole entry): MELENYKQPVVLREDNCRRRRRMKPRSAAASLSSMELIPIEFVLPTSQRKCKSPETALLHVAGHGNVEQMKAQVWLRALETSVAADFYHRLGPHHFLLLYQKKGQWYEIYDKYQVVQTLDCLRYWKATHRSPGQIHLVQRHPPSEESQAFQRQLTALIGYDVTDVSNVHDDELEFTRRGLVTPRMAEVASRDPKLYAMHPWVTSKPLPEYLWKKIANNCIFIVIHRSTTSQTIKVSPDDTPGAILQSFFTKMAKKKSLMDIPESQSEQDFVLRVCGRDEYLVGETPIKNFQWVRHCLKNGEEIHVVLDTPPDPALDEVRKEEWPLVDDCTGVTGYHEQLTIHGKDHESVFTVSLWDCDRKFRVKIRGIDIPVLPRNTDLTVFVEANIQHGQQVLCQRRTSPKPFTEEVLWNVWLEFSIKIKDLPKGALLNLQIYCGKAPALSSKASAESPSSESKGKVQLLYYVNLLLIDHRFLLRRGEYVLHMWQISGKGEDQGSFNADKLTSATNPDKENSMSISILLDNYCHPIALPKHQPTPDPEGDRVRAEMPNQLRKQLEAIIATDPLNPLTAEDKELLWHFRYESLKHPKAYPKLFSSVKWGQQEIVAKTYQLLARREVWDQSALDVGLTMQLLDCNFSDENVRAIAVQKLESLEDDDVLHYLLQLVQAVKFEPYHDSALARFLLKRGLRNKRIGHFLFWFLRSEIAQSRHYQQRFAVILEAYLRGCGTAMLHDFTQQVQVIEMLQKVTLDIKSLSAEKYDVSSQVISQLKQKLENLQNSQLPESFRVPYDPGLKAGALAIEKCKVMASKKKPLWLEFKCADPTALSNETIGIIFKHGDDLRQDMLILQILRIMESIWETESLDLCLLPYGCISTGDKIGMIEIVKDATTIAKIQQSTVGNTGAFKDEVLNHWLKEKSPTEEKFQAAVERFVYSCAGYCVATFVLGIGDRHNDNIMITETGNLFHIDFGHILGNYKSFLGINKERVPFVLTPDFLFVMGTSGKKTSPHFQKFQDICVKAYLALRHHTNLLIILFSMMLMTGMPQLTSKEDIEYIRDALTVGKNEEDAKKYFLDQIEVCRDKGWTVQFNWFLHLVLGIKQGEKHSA
PI3Kδ (p110δ/p85α) Recombinant Human Protein, sequence (O00329 whole entry): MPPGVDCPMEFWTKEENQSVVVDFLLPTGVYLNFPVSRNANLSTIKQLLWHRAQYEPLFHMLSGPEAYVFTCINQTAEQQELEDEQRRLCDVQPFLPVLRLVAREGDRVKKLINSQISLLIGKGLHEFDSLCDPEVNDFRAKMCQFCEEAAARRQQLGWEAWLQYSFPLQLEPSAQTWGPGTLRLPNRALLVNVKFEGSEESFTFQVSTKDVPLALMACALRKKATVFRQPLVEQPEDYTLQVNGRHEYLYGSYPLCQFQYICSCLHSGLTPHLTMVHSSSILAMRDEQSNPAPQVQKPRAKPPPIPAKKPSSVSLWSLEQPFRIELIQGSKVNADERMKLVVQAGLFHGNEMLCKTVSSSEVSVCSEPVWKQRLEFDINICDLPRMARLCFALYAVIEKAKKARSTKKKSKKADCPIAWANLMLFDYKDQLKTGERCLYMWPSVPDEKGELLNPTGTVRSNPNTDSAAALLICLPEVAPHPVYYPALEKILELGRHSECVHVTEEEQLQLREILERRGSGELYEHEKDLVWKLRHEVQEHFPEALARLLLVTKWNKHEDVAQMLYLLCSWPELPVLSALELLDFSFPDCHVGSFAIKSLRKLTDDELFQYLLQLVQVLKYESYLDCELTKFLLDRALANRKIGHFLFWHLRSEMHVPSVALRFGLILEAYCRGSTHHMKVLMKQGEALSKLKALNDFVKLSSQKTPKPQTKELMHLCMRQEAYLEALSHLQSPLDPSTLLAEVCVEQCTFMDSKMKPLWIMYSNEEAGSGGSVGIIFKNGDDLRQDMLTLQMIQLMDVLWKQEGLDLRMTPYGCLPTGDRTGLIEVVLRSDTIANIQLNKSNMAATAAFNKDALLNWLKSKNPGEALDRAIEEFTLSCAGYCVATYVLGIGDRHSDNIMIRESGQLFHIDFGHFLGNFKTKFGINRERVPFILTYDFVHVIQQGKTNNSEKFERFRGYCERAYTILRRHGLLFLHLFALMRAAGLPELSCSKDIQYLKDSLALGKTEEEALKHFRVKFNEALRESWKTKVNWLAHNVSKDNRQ
PI3Kδ (p110δ/p85α) Recombinant Human Protein, sequence (P27986 whole entry partner): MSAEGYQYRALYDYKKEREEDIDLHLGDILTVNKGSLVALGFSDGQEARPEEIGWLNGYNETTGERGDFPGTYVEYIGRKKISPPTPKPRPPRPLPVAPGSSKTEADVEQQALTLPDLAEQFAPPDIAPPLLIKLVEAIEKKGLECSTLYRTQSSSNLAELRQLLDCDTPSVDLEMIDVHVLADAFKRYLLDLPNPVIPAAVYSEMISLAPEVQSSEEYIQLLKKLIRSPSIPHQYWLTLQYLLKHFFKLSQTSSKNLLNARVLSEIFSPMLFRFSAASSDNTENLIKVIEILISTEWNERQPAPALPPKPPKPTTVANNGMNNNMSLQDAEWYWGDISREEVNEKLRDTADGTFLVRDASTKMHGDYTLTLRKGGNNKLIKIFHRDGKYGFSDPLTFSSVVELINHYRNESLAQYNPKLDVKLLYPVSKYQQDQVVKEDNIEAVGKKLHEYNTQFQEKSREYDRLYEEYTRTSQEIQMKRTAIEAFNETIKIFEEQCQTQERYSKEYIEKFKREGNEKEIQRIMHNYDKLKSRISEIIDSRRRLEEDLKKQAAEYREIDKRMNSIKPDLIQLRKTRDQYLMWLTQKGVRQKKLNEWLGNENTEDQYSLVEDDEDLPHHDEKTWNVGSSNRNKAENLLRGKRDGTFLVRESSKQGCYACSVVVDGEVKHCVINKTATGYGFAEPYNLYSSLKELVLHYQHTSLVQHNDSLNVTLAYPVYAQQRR

A word on the IC50: it is the concentration that inhibits the measured activity by half. On to `[2H]C([2H])([2H])c1ccc(C(C)(O)C(F)(F)F)cc1-c1cnc2c(N)nc(-c3ccc(C(C)O)nc3)cn12` (stereo not drawn) [Example 267, 2-(3-(8-Amino-6-(6-(1-hydroxyethyl)pyridin-3-yl)imidazo[1,2-a]pyrazin-3-yl)-4-(methyl-d3)phenyl)-1,1,1-trifluoropropan-2-ol], for which the IC50 in assay [1], in assay [2] and in assay [3] was less than 100 nM each time.

As for `Cc1ccc(C(C)(O)C(F)(F)Cl)cc1-c1cnc2c(N)nc(C(F)(F)F)cn12` (stereo not drawn) [Example 268, 2-(3-(8-Amino-6-(trifluoromethyl)imidazo[1,2-a]pyrazin-3-yl)-4-methylphenyl)-1-chloro-1,1-difluoropropan-2-ol], the IC50 in assay [1] was less than 100 nM; in assay [2], 100 to 500 nM; in assay [3], 100 to 500 nM.

Turning to `Cc1ccc(C(C)(O)C(F)(F)F)cc1-c1cnc2c(N)nc(C(=O)NC34CC(C#N)(C3)C4)cn12` (stereo not drawn) [Example 278, 8-Amino-N-(3-cyanobicyclo[1.1.1]pentan-1-yl)-3-(2-methyl-5-(1,1,1-trifluoro-2-hydroxypropan-2-yl)phenyl)imidazo[1,2-a]pyrazine-6-carboxamide trifluoroacetate salt], the IC50 was less than 100 nM in assay [1], 100 to 500 nM in assay [2] and 100 to 500 nM in assay [3].

For `Cc1ccc(C(C)(O)C(F)(F)F)cc1-c1cnc2c(N)nc(C(=O)NCC3(C#N)CCC3)cn12` (stereo not drawn) [Example 283, 8-Amino-N-((1-cyanocyclobutyl)methyl)-3-(2-methyl-5-(1,1,1-trifluoro-2-hydroxypropan-2-yl)phenyl)imidazo[1,2-a]pyrazine-6-carboxamide trifluoroacetate salt], the IC50 was less than 100 nM in assay [1], less than 100 nM in assay [2] and more than 1000 nM in assay [3].

Consider `Cc1ccc(C(O)(C(N)=O)C(F)(F)F)cc1-c1cnc2c(N)nc(C(=O)NCC(C)(C)O)cn12` (stereo not drawn) [Example 284, 8-Amino-3-(5-(3-amino-1,1,1-trifluoro-2-hydroxy-3-oxopropan-2-yl)-2-methylphenyl)-N-(2-hydroxy-2-methylpropyl)imidazo[1,2-a]pyrazine-6-carboxamide], for which the values for the IC50 in assay [1], in assay [2] and in assay [3] were less than 100 nM, 100 to 500 nM and less than 100 nM, respectively.

On to `Cc1ccc(C(O)(C(N)=O)C(F)(F)F)cc1-c1cnc2c(N)nc(C(=O)NC3CCOCC3)cn12` (stereo not drawn) [Example 285, 8-Amino-3-(5-(3-amino-1,1,1-trifluoro-2-hydroxy-3-oxopropan-2-yl)-2-methylphenyl)-N-(tetrahydro-2H-pyran-4-yl)imidazo[1,2-a]pyrazine-6-carboxamide], for which the half-inhibitory concentration (IC50) in assay [1] is less than 100 nM; in assay [2] it was 500 to 2000 nM; in assay [3], 100 to 500 nM.

Regarding `Cc1ccc(C(O)(C(N)=O)C(F)(F)F)cc1-c1cnc2c(N)nc(C(=O)NC34CC(F)(C3)C4)cn12` (stereo not drawn) [Example 288, 8-Amino-3-(5-(3-amino-1,1,1-trifluoro-2-hydroxy-3-oxopropan-2-yl)-2-methylphenyl)-N-(3-fluorobicyclo[1.1.1]pentan-1-yl)imidazo[1,2-a]pyrazine-6-carboxamide trifluoroacetate salt], the IC50 is less than 100 nM in assay [1], 100 to 500 nM in assay [2] and less than 100 nM in assay [3].

Take `[2H]C([2H])([2H])NC(=O)C(O)(c1ccc(C)c(-c2cnc3c(N)nc(C(=O)NC(CC#N)C(F)(F)F)cn23)c1)C(F)(F)F` (stereo not drawn) [Example 289, 8-Amino-N-(3-cyano-1,1,1-trifluoropropan-2-yl)-3-(2-methyl-5-(1,1,1-trifluoro-2-hydroxy-3-((methyl-d3)amino)-3-oxopropan-2-yl)phenyl)imidazo[1,2-a]pyrazine-6-carboxamide trifluoroacetate salt]: the IC50 in assay [1] was less than 100 nM; in assay [2], 100 to 500 nM; in assay [3], less than 100 nM.
